Three molecules from patent publication US10166218B2, “3-(1H-indol-2-yl)-1H-pyrazolo[3,4-C]pyridines and therapeutic uses thereof” (Samumed, LLC, priority 2015, dated 2019) can be followed below.

By EC50 is commonly meant the concentration needed to bring the measured effect to its halfway point. A lower EC50 goes with an effect from little substance. Broadly, the inhibition is how much of the control response was suppressed.

What all share (format): cell-based
In assay [1] the test system is primary human fibroblasts derived from IPF patients (LL29 cells) treated with TGF-β1; α-smooth muscle actin (αSMA). The assay is described as follows: Inhibition of the fibrotic process: αSMA staining in TGF-β1 treated primary human fibroblasts from IPF patients (LL29 cells). The settings on record: Fibroblast, 96 h, TGF-β1 20 ng/mL, 4 days; for EC50: % cells positive for αSMA. Put shortly:
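LL29 IPF-patient lung fibroblasts in 1% FBS F12 were given compounds (11-point, 10 μM to […], 0.1% DMSO) plus TGF-β1 20 ng/mL for 4 days at 37 °C. αSMA-positive fraction of live (SYTOX-negative) cells was imaged and normalized to TGF-β1/DMSO wells. EC50 by non-linear regression, or % inhibition at 10 μM if >10 μM.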

The next assay deals with IL-6 (THP-1 cells). The assay can be described thus: Inhibition of IL-6 in LPS-stimulated THP-1 human monocyte cells (HTRF). The settings on record: inhibition of IL-6 in LPS-stimulated THP-1 cells, HTRF, 10-point dose-response starting from 10 μM. Put shortly:
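THP-1 cells, serum-reduced (1% FBS) for 24 h, were preincubated with compound (10-point 1:3 series from 10 μM, 0.1% DMSO) for 2 h, then stimulated with 500 ng/mL LPS for 22 h at 37° C. IL-6 was read by HTRF (665/620 nm ratio) and normalized to DMSO. EC50 from four-parameter fit; % inhibition at 10 μM given if EC50 >10 μM.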

A further assay has as its system SW480 colon cancer cells. The assay is described as follows: Cell viability assay (CellTiter-Blue) in SW480 colon cancer cells. The settings on record: Homo sapiens, 96 h, four days; for EC50: CellTiter-Blue. A digest of the protocol:
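SW480 colon cancer cells (~2×10^3/well) exposed to 8-point 1:3 dilutions from 10 μM to 0.0045 μM for four days at 37 °C/5% CO2. Viability read by resazurin (CellTiter-Blue) fluorescence after ~3 h, Ex 560/Em 590 nm. EC50 from non-linear regression; percent inhibition at 10 μM given when EC50 >10 μM.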

Turning to `CN(C)CCNc1cc(F)cc(-c2cccc3[nH]c(-c4n[nH]c5cnc(-c6cncc(O)c6)cc45)cc23)c1` [Compound 817, 5-(3-(4-(3-((2-(Dimethylamino)ethyl)amino)-5-fluorophenyl)-1H-indol-2-yl)-1H-pyrazolo[3,4-c]pyridin-5-yl)pyridin-3-ol], the values for the EC50 (in assay [1]; in the assay with IL-6 (THP-1 cells); in the assay on SW480 colon cancer cells) were 519 nM, 232 nM and 1070 nM, respectively.

Consider `Cn1cc(-c2cc3c(-c4cc5ncccc5[nH]4)n[nH]c3cn2)cn1` [Compound 1022, 5-(1-Methyl-1H-pyrazol-4-yl)-3-(1H-pyrrolo[3,2-b]pyridin-2-yl)-1H-pyrazolo[3,4-c]pyridine], for which the EC50 in assay [1] is > 10000 nM; with IL-6 (THP-1 cells), 344 nM; in the assay with SW480 colon cancer cells it was 2560 nM. Also, the inhibition at 10 µM in assay [1] (αSMA, 10 μM, read-out: percent inhibition at 10 μM (given for EC50 of >10 μM)) was 44.5%.

Turning to `CN(C)CCOc1cncc(-c2cc3c(-c4cc5ncccc5[nH]4)n[nH]c3cn2)c1` [Compound 1029, 2-((5-(3-(1H-Pyrrolo[3,2-b]pyridin-2-yl)-1H-pyrazolo[3,4-c]pyridin-5-yl)pyridin-3-yl)oxy)-N,N-dimethylethan-1-amine], the EC50 was 1720 nM in assay [1], 2450 nM in the assay on IL-6 (THP-1 cells) and > 10000 nM with SW480 colon cancer cells. Also, the inhibition at 10 µM in the assay on SW480 colon cancer cells (10 μM, read-out: percent inhibition at 10 μM (given for EC50 of >10 μM)) amounted to 17.1%.
